Like-named read-outs stand apart in the source and are kept apart here. Marks after values point to notes of the source that are not given here.
What was measured:
[1] = system: HBV; test: Anti-HBV activity in vitro in HepG2.2.15 cells (extracellular HBV DNA by qPCR); assay type: cell-based, Hepatitis B virus; settings: HepG2.2.15 cells, in-house data, read-out: EC50
Outline: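 HepG2.2.15 cells, which constitutively produce HBV, were seeded overnight and then treated for 5 days with half-log serially diluted compounds at 0.5% final DMSO. Extracellular HBV DNA in culture supernatant was extracted and quantified by qPCR.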

[2] = literature data, Deres K. et al. Science 2003, 893-896; cited from earlier work
[3] = Mouse SDPK (single dose PK in male ICR mouse, plasma and liver); assay type: in vivo; settings: male ICR mice; for bioavailability / AUC(0-inf) / clearance: mouse; for bioavailability: 1 mg/kg IV, 3 mg/kg PO, read-out: F (bioavailability); for clearance: read-out: Plasma Cl (IV)
Description: The single dose PK in male ICR mouse was performed to assess their pharmacokinetic properties. Two groups of animals were dosed via either bolus intravenous (IV) or oral gavage (PO) of the respective compound. The animals for oral administration were fasted overnight prior to dosing and food was resumed 4 hours postdose. Blood samples (approximately 400 μL) were collected via cardiac puncture after euthanasia by carbon dioxide inhalation at 2 mins, 5 mins, 15 mins, 30 mins, 1 h, 2 hrs, 4 hrs, 6 hrs, 8 hrs, and 24 hrs postdose for IV group, and at 5 mins, 15 mins, 30 mins, 1 h, 2 hrs, 4 hrs, 6 hrs, 8 hrs, and 24 hrs postdose for PO group. Blood samples were placed into tubes containing sodium heparin and centrifuged at 8000 rpm for 6 minutes at 4° C. to separate plasma from the samples. Following centrifugation, the resulting plasma was transferred to clean tubes for bioanalysis on LC/MS/MS. The pharmacokinetic parameters were calculated using non-compartmental module of WinNonlin® Professional 5.2.

[4] = system: HBV; settings: literature data, Deres K. et al. Science 2003, 893-896; cited from earlier work
[5] = Cytotoxicity (CC50) in HepDE19 cells, CCK-8 cell viability; assay type: cell-based; settings: human, HepDE19 cells; read-out: CC50
Outline: (§1)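 HBV-transfected HepG2-derived HepDE19 cells grown in DMEM-F12 with 10% FBS and G418. Viability read five days after treatment by CCK-8, 2 h at 37 °C, absorbance at 450 and 630 nm.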

[6] = Metabolic stability study in human microsome; assay type: in vitro ADME
Outline: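 Human liver microsomes (0.5 mg/mL) with 1 μM compound in 100 mM phosphate pH 7.4 at 37 °C, started with 1 mM NADPH or an NADPH-regenerating system. Samples taken at 0, 3, 6, 9, 15 and 30 min, quenched in methanol. Parent remaining measured by LC-MS/MS; no-cofactor controls included.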

[7] = Lyophilisation solubility assay (Lysa); assay type: physicochemical; settings: phosphate buffer, pH 6.5, aqueous buffer, thermodynamic from solid
Outline: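 Duplicate samples from 10 mM DMSO stocks are dried, redissolved in 0.05 M phosphate buffer pH 6.5, stirred 1 h, shaken 2 h and left overnight. Filtrate and its 1/10 dilution are quantified by direct UV or HPLC-UV, giving solubility in μg/mL.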

[8] = system: HBV; test: Selectivity index (CC50 value/EC50 value); assay type: cell-based, Hepatitis B virus
Outline: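 Ratio of CC50 to EC50, measuring antiviral activity against HBV relative to cytotoxicity in vitro; higher values indicate greater separation between viral inhibition and cell death.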

[9] = system: HepDE19 cells; test: Cytotoxicity (CC50) in HepDE19 cells, CCK-8 cell viability; assay type: cell-based
Outline: as §1

[10] = plasma, dose 1 mg/kg IV, read-out: Plasma AUC(0-∞) (IV)
[11] = plasma, dose 3 mg/kg PO, read-out: Plasma AUC(0-∞) (PO)

## COC(=O)C1=C(C)NC(c2ncc(F)cc2F)=N[C@H]1c1ccc(F)cc1Cl [Bay 41-4109, reference compound]
[1]
  EC50: 87 nM
[2]
  F (bioavailability): (31^1) %
  Plasma Cl (IV): (67^1) mL/min/kg
[3]; plasma, 5 mg/kg IV, 30 mg/kg PO
  F (bioavailability): 21%
[3]; plasma, dose 5 mg/kg IV
  Plasma AUC(0-∞) (IV): 1380 ng·h/mL
  Plasma Cl (IV): 60 mL/min/kg
[3]; plasma, dose 30 mg/kg PO
  Plasma AUC(0-∞) (PO): 1740 ng·h/mL
[4]
  EC50: 50 nM

## COC(=O)C1=C(CN2CC(F)(F)C[C@H]2C(=O)O)NC(c2nccs2)=N[C@H]1c1ccc(F)cc1Cl [Example 2, (R)-6-((S)-2-Carboxy-4,4-difluoro-pyrrolidin-1-ylmethyl)-4-(2-chloro-4-fluoro-phenyl)-2-thiazol-2-yl-1,4-dihydro-pyrimidine-5-carboxylic acid methyl ester]
[5]
  CC50 at 5 days: 85000 nM
[6]
  Human Hepatic Clearance: 3.65 mL/min/kg
[7]
  solubility thermodynamic: > 698 µg/mL
[1]; Hepatitis B virus
  EC50: 2.7 nM
[3]; dose 3 mg/kg PO
  Liver AUC(0-∞) (PO): 18000 ng·h/mL
[3]; plasma
  bioavailability: 94%
[3]; [10]
  AUC(0-inf): 995 ng·h/mL
[3]; plasma, dose 1 mg/kg IV
  clearance: 17 mL/min/kg
[3]; [11]
  AUC(0-inf): 2790 ng·h/mL
[8]
  Selectivity index (CC50/EC50): 31481

## COC(=O)C1=C(CN2CCOC[C@H]2C(=O)O)N=C(c2nccs2)N[C@H]1c1ccc(F)cc1Cl [Example 5, (S)-4-[(R)-6-(2-Chloro-4-fluoro-phenyl)-5-methoxycarbonyl-2-thiazol-2-yl-3,6-dihydro-pyrimidin-4-ylmethyl]-morpholine-3-carboxylic acid]
[9]
  CC50: > 100000 nM
[6]
  Human Hepatic Clearance: 2.7 mL/min/kg
[7]
  solubility thermodynamic: > 660 µg/mL
[3]; dose 3 mg/kg PO
  Liver AUC(0-∞) (PO): 11800 ng·h/mL
[3]; plasma, dose 3 mg/kg PO
  Plasma AUC(0-∞) (PO): 962 ng·h/mL
[3]; plasma
  bioavailability: 37%
[3]; [10]
  AUC(0-inf): 878 ng·h/mL
[3]; plasma, dose 1 mg/kg IV
  clearance: 19 mL/min/kg

## COC(=O)C1=C(CN2CC(F)(F)C[C@H]2C(=O)O)NC(c2nc(C)cs2)=N[C@H]1c1ccc(F)cc1Cl [Example 16, (R)-6-((S)-2-Carboxy-4,4-difluoro-pyrrolidin-1-ylmethyl)-4-(2-chloro-4-fluoro-phenyl)-2-(4-methyl-thiazol-2-yl)-1,4-dihydro-pyrimidine-5-carboxylic acid methyl ester]
[5]
  CC50 at 5 days: 30000 nM
[6]
  Human Hepatic Clearance: 6.35 mL/min/kg
[7]
  solubility thermodynamic: > 622 µg/mL
[1]; Hepatitis B virus
  EC50: 2 nM
[3]; dose 3 mg/kg PO
  Liver AUC(0-∞) (PO): 35200 ng·h/mL
[3]; plasma
  bioavailability: 69%
[3]; [10]
  AUC(0-inf): 290 ng·h/mL
[3]; plasma, dose 1 mg/kg IV
  clearance: 57 mL/min/kg
[3]; [11]
  AUC(0-inf): 598 ng·h/mL
[8]
  Selectivity index (CC50/EC50): 15000

— patent publication US9447086B2, “6-amino acid heteroaryldihydropyrimidines for the treatment and prophylaxis of hepatitis B virus infection” (priority 2012, dated 2016)
